From patent US20230389545A1, “ANTIMICROBIAL COMPOSITION” (The Procter & Gamble Company, priority 2022, published 2023)

Key:
[1] = Stability of the isolated solid followed by 1H NMR; format: physicochemical; details: storage
Gram Negative = assay: Surface Antimicrobial Kill Testing Method, activity normalized to triclosan internal standard; format: cell-based; details: for antimicrobial activity (in words, comment on Table 1B): composition with nonionic surfactant and non-aqueous solvent; for antimicrobial benefit (in words, comment on Table 2B): DPGME / Surfonic L24-9 composition
Description: Inoculum is prepared by streaking microorganism onto a Tryptic Soy Agar (TSA) plate and incubating for 24 h at 33° C. Plated bacteria is resuspended in saline until the transmittance percentage falls within the accepted range for ˜10^8 cfu/mL. For K. pneumonia (Kp) and P. aeruginosa (Pa), this is 31.00-33.00% T. For S. aureus (Sa) this is 23.00-25.00% T. A 10× concentration is made by spinning down the prepared inoculum, removing the supernatant saline from the bacterial pellet, then resuspending the pellet in 1/10th of the original volume of saline. The final inoculum is prepared with 5% of “soil” in the form of Fetal Bovine Serum (FBS).
A 18×18 mm sterile glass coverslip is placed into an appropriate container (e.g. petri dish). 20 μL of prepared inoculum is added to the glass coverslip. Inoculum is then air-dried for 30 minutes in a 36° C. incubator. After drying, 40 μL of test sample is added on top of the dried inoculum. This is incubated at room temperature for the desired contact time. 5 mL of neutralizing media (Modified Letheen Broth+Tween+Lecithin (MLBTL)) is added to the coverslip and shaken on an orbital shaker for 5 minutes to ensure proper neutralization and extraction. Viability is then assessed of the neutralized and extracted sample by traditional/alternative microbiological techniques.
The normalized antimicrobial activity reported in the performance examples below was generated from detection time data obtained as described in the Surface Antimicrobial Kill Test Method. To account for day-to-day variability an internal standard was tested with each series. […] Normalized activity is reported following the equation 1 below.
Normalized Activity=(αΔDT−βΔDT)/(γΔDT−βΔDT) equation 1.
where, αΔDT is the average detection time of the antimicrobial compound, and γΔDT is the average detection time of the reference triclosan internal standard, and βΔDT is the average detection time of the background unperturbed bacteria.
Modified amino acids of the present disclosure were tested as aqueous solutions in the Surface Antimicrobial Kill Testing Method above. To prepare test solutions modified amino acids were first dissolved in the appropriate solvent. Second the selected surfactant is added to the mixture. After vortex (1 min, Vortex-2 Genie, vortex speed 8) mixing, the samples were then diluted with […] of reverse osmosis water (RO water, Millipore Direct-Q™, pH 6). The aqueous solution was then vortexed (1 min, Vortex-2 Genie, vortex speed 8), to which the second ½ portion of water is added. The pH of the solution was then adjusted to the target pH using either 1N HCl, Glacial Acetic Acid, or 1N NaOH. The final solution was then vortexed (1 min, Vortex-2 Genie, vortex speed 8). An example batch sheet is provided below in Table 1.
After treatment, microbial growth is referenced and reported to a triclosan sample and unaltered microbes according to the Normalization of Antimicrobial Activity provided above.

Compound | stability of the independent solid by 1H NMR [1] | antimicrobial activity (in words, comment on Table 1B) (Gram Negative) | antimicrobial benefit (in words, comment on Table 2B) (Gram Negative) | antimicrobial efficacy versus pH (in words, comment on Table 3) (Gram Negative; composition pH of about 2 to less than about pH 9) | microbial activity with surfactants (in words, comment on Table 4) (Gram Negative; with non-ionic and amphoteric surfactants, isotropic solutions)
CC(C)(C)OC(=O)[C@@H](N)Cc1c[nH]c2ccccc12 [Synthetic Example 1, L-tryptophan tert-butyl ester] | stable for several months | proved to be antimicrobial |  |  | 
CCCCCCCCOC(=O)[C@@H](N)Cc1c[nH]c2ccccc12 [Synthetic Example 3] | stable for several months | highest antimicrobial activity |  |  | 
CCCCCCCCCCCCOC(=O)[C@@H](N)Cc1c[nH]c2ccccc12 [Synthetic Example 4] | stable for several months |  |  |  | 
CCCCCCCCOC(=O)[C@@H](N)Cc1ccc(O)cc1 [Synthetic Example 5] | stable for several months |  | antimicrobial benefit over the solvent/surfactant alone and over Comparative Example C2 | improved antimicrobial efficacy | improved microbial activity over the aqueous solution of the modified amino acid alone
CC/C=C\CCCCCOC(=O)[C@@H](N)Cc1ccc(O)cc1 [Synthetic Example 6] | stable for several months |  | antimicrobial benefit over the solvent/surfactant alone and over Comparative Example C2 |  | 
CCCCCC(CCC)COC(=O)[C@@H](N)Cc1ccc(O)cc1 (stereo partly shown) [Synthetic Example 7] | stable for several months |  | antimicrobial benefit over the solvent/surfactant alone and over Comparative Example C2 |  | 
